Laboratory results taken from paper PMC9964323, “New Titanocene (IV) Dicarboxylates with Potential Cytotoxicity: Synthesis, Structure, Stability and Electrochemistry” (International Journal of Molecular Sciences, 2023).
“Also recorded” adds a separate entry of the source.

Legend:
[1] = Cyclic voltammetry (reduction potentials); assay type: physicochemical; details: for Ered, first reduction potential: first value of cell; for Ered, first reduction potential / Ered, second reduction potential: DMF, 0.05 M Bu4NClO4, glass-carbon electrode, vs Ag/AgCl/KCl (sat.), 100 mV/s, C = 1 × 10^−1 mol L^−1; for Ered, second reduction potential: second value of cell
Protocol: It was shown that, as expected, the reduction potentials of Ti (IV) for all compounds depend on the structure of the carboxylate-containing ligand, in particular, the presence of donor and acceptor substituents in the ligand benzene ring (Table 3).
Cyclic Voltammetry experiments were conducted using an IPC Pro M potentiostat (Russia) with cyclic voltammetry (CV) and rotating disk electrode (RDE) techniques. Glass-carbon (d = 2 mm) disks were used as the working electrodes, 0.05 M Bu4NClO4 solution in DMF served as the supporting electrolyte, and Ag/AgCl/KCl (sat.) was used as the reference electrode. The potential scan rates were 100 mV/s. Samples were dissolved in the predeaerated solvent.

[2] = Stability in aqueous media (hydrolysis followed by optical absorption at 330 nm); assay type: physicochemical; details: 0.4 mM, 10% DMSO 90% water
From the text: The decrease in the concentration of the coordination compound was estimated from the decrease in the optical absorption at a wavelength of 330 nm. We considered it inappropriate to use the optical absorption maximum in the range of 230–300 nm for similar purposes because the absorption of the initial coordination compound, free carboxylate-containing ligands, and cyclopentadiene may overlap in this region.
Stability in aqueous media was studied by recording the full optical absorption spectra of solutions of the studied titanocene derivatives with an initial concentration of 0.4 mM in the solvent system (10% DMSO 90% water) at different time intervals. The change in the concentration of the studied compound was evaluated by the decrease in optical absorption at a wavelength of 330 nm. Full absorption spectra of studied compounds are presented as Figure S7 in the Supplementary Materials.

[3] = system: adenocarcinoma of the lung, breast, and gastrointestinal tract; design: method as in PMID 111586, PMID 7988618; details: cited from earlier work
[4] = design: method as in PMID 9704729, PMID 9829732; details: phase I clinical trials; cited from earlier work
[5] = system: platinum-resistant cell lines; design: method as in PMID 8499130; details: cited from earlier work
[6] = system: metastatic breast and colon tumors; details: phase II clinical trials, dose of 240 mg/m^2; cited from earlier work
[7] = system: Ehrlich ascites carcinoma; design: method as in PMID 111586; details: cited from earlier work

Row | Molecule | Ered, first reduction potential [1] | Ered, second reduction potential [1] | hydrolysis rate / stability in aqueous media [2] | further results
1 | O=C([O-])c1ccccc1.O=C([O-])c1ccccc1.[Ti+4].c1cc[cH-]c1.c1cc[cH-]c1 [2a, bis(η^5-cyclopentadienyl)bis(benzoato)titanium(IV)] | −0.85 V | −2.17 V |  | 
2 | [N-]=[N+]=Nc1ccc(C(=O)[O-])cc1.[N-]=[N+]=Nc1ccc(C(=O)[O-])cc1.[Ti+4].c1cc[cH-]c1.c1cc[cH-]c1 [2c, bis(η^5-cyclopentadienyl)bis(4-azidobenzoato)titanium(IV)] | −0.78 V | −2.01 V |  | 
3 | O=C([O-])c1cccc(F)c1.O=C([O-])c1cccc(F)c1.[Ti+4].c1cc[cH-]c1.c1cc[cH-]c1 [2d, bis(η^5-cyclopentadienyl)bis(3-fluorobenzoato)titanium(IV)] | −0.79 V | −2.05 V |  | 
4 | O=C([O-])c1c(F)c(F)c(F)c(F)c1F.O=C([O-])c1c(F)c(F)c(F)c(F)c1F.[Ti+4].c1cc[cH-]c1.c1cc[cH-]c1 [2e, bis(η^5-cyclopentadienyl)bis(pentafluorobenzoato)titanium(IV)] | −0.57 V | −1.81 V | hydrolyzed more slowly than compound 2b; also recorded: slower | half-life time in water [2]: approximately 3 h
5 | CC(=O)Oc1ccccc1C(=O)[O-].CC(=O)Oc1ccccc1C(=O)[O-].[Ti+4].c1cc[cH-]c1.c1cc[cH-]c1 [2f, bis(η^5-cyclopentadienyl)bis(2-acetoxybenzoato)titanium(IV)] | −0.81 V | −2.11 V |  | 
6 | [Cl-].[Cl-].[Ti+4].c1cc[cH-]c1.c1cc[cH-]c1 [Cp2TiCl2, Titanocene dichloride] | −0.62 V | −1.85 V | lower stability in aqueous media compared to the carboxylate-containing analogues | cytotoxicity [3]: pronounced cytotoxicity; dose-dependent side effects [4]: mild nephrotoxicity, fatigue, and bilierubinimia; cytotoxicity [5]: pronounced cytotoxicity; therapeutic effect [6]: did not show a therapeutic effect; cure ([7]; Ehrlich ascites carcinoma inoculated into mice): 80%; side effects associated with drug toxicity ([7]; Ehrlich ascites carcinoma inoculated into xenograft mice): no noticeable side effects
7 | bis(η^5-cyclopentadienyl)bis(4-benzoxybenzoato)titanium(IV) [2b] | −0.88 V | −2.21 V |  | half-life time in water [2]: approximately 3 h
8 | bis(η^5-cyclopentadienyl)salicylatotitanium(IV) [2g] | −0.90 V |  | Hydrolysis proceeds slowly | Reversibility of reduction ([1]; CV in DMF): reversibly reduced and oxidized and rev
